In EP0994104A1, “ARYL (SULFIDE, SULFOXIDE AND SULFONE) DERIVATIVES AND DRUGS CONTAINING THE SAME AS THE ACTIVE INGREDIENT” (ONO PHARMACEUTICAL CO., LTD., priority 1996, dated 1997):

What follows are compounds tested against T1, gelatinase A (Homo sapiens, UniProt P08253) (assay: Inhibitory activity against gelatinase A (FITC-gelatin degradation, fluorescence)). Conditions: progelatinase A purified from human normal skin dermal fibroblasts (HNDF), activated with APMA; 0.05 % FITC-gelatin, 2 hours at 37°C.
T1 construct: endogenous in cells; host or cells: human normal skin dermal fibroblasts (HNDF)
T1 sequence (P08253 110-660): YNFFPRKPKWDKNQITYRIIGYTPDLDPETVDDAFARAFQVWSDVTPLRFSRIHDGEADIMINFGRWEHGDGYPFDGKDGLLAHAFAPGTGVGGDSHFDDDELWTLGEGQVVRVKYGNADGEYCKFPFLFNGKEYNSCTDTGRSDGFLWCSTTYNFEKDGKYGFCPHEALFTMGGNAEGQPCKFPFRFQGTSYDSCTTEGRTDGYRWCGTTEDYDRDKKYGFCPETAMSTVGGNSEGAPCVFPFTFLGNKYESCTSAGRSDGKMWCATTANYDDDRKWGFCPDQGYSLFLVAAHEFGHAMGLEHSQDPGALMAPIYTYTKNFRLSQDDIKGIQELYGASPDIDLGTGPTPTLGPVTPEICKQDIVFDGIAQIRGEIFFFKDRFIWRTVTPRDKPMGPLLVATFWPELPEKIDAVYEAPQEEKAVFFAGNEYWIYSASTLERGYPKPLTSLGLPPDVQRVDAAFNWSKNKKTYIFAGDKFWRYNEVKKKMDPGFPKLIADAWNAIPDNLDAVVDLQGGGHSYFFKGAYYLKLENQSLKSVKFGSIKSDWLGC
Assay type: biochemical
Description: (1) Inhibitory activity against gelatinase A.
The progelatinase A (7 µl; in assay buffer (90 µl) was purified from human normal skin dermal fibroblasts (HNDF). It was activated by the addition of 10 mM APMA (10 µl) for 1 hour at 37°C. The solution of activated gelatinase A (1 U/tube, 98 µl) was mixed with the solution of various concentrations of the test compound or the solution in which the test compound is not added, (2 µl), and 0.05 % FITC-gelatin (100 µl) and incubated for 2 hours at 37°C. The enzymatic reaction was terminated by the addition of 2 M Tris-HCl (pH 9.5) containing 94.7% ethanol (750 µl). The mixture was stirred and then allowed to stand for 30 minutes at 0°C. The mixture was centrifuged for 30 minutes at 900 x g. Inhibitory activity against gelatinase was determined by measuring the fluorescent intensity in supernatant (Ex = 495 nm, and Em = 520 nm).
In the above experimental method, APMA is p-aminophenylmercuric acetate and FITC is fluorescein isothiocyanate.

| IC50 [nM] | Compound |
| --- | --- |
| 1.4 | CC(CS(=O)(=O)c1ccc(-c2cc3ccccc3o2)cc1)C(=O)NO (stereo not drawn) [Example 28(1), N-hydroxy-2-methyl-3-[4-(2-benzofuranyl)phenylsulfonyl]propionamide] |
| 2.9 | Cc1ccc(C#Cc2ccc(S(=O)(=O)CC(C)C(=O)NO)cc2)cc1 (stereo not drawn) [Example 28(3), N-hydroxy-2-methyl-3-[4-(4-tolylethynyl)phenylsulfonyl]propionamide] |
| 400 | O=C(O)CCS(=O)(=O)c1ccc(C#Cc2ccccc2)cc1 [Example 8(7), 3-[4-(phenylethynyl)phenylsulfonyl]propionic acid] |
| 540 | O=C(O)CCS(=O)(=O)c1ccc(NC(=O)c2ccccc2)cc1 [Example 8(2), 3-[4-(benzoylamino)phenylsulfonyl]propionic acid] |
| 13 | CCCCCC#Cc1ccc(S(=O)(=O)CC(C)C(=O)NO)cc1 (stereo not drawn) [Example 28, N-hydroxy-2-methyl-3-[4-(1-heptynyl)phenylsulfonyl]propionamide] |

| Compound | IC50 [nM] |
| --- | --- |
| COc1ccc(S(=O)(=O)CC(NC(=O)C(NC(=O)OC(C)(C)C)c2ccccc2)C(=O)NO)cc1 (stereo not drawn) [Example 19(1), N-hydroxy-2-[N-[N-(t-butoxycarbonyl)phenylglycyl]amino]-3-(4-methoxyphenylsulfonyl)propionamide] | 11 |
